What all share (assay type): in vivo
The test system of one assay is IL-6. The assay is described as follows: Reduction of LPS-induced Interleukin-6 levels in mice (ELISA). The conditions noted are these: 300 μg/mouse; LPS-treated mice vs untreated control. Here is the method: Balb/c mice were grouped and treated as described in Example III, above. Blood samples were obtained from the orbital sinus at various times up to six hr and serum was collected and diluted as described above. A 100 μl aliquot was assayed for IL-6 levels using an IL-6-specific ELISA by a modification of the method of Starnes et al., J. Immunol. 145:4185-4194 (1990), which is incorporated herein by reference.
The mean (+/-SEM) IL-6 level in six mice from each group was determined and the percent reduction in IL-6 was calculated.
In general terms: An ELISA detects its analyte on a solid surface through an enzyme-linked reagent.

The subject of assay [1] is Harlan Sprague-Dawley rats. The assay is described as follows: Adult respiratory distress syndrome: LPS-induced PMN count in broncho-alveolar lavage. Conditions: 100 μg/kg IP; LPS 5 mg/kg intratracheal; lavage at 6 hr. Here is the method: These experiments were performed using a modification of the methods described by Ulich et al., Am. J. Pathol. 141:61-68 (1992) and by Wheelden et al., Lab. Animals 26:29-37 (1992), each of which is incorporated herein by reference. Male Harlan Sprague-Dawley rats were anesthetized using a mixture of 70 mg/kg ketamine and 6 mg/kg rompun injected IP. A 2-3 cm incision was made in the neck of each anesthetized rat and its trachea was exposed by blunt dissection of the surrounding soft tissue. The rats were suspended on a near vertical slab and intratracheal injections were performed by inserting into the exposed trachea, at a point 1 cm posterior to the larynx, a 25 G×1/2 inch needle attached to a 1 cc syringe.
Each rat received 0.5 ml/kg of saline or 0.5 ml/kg of 10 mg/ml (5 mg/kg) LPS endotoxin via slow intratracheal administration. Immediately following administration of the LPS endotoxin, rats were injected IP with 1 ml/kg of either saline (control) or saline containing various concentrations of EX-2 (treated). The rats were maintained in the elevated position for 1-2 min to facilitate distribution of the LPS and saline into the lung. The incisions were closed and the rats were allowed to recover. […]
neutrophils) in the broncho-alveolar lavage fluid were counted in the EX-2-treated rats and compared with the number in the control rats.

A further assay relates to Wistar rats. As to the kind of experiment: LPS-induced temperature increase (fever). The conditions noted are these: 6 hr following LPS. Here is the method: Male Wistar rats (45-75 days old) were placed in a temperature controlled room held at 26° C., which is thermoneutral for the normal body temperature of rats, and were maintained in the room with free access to food and water for 24 hr prior to testing. On the morning of the study, rats were marked for identification and weighed. The temperature of each rat was determined by placing the animal in a restraining cage designed to minimize stress and inserting a temperature probe (YSI probe #402) 3-5 cm into the animal's rectum. The temperature was recorded 15 sec after the reading stabilized. Measurements were repeated 1 hr later to establish a baseline temperature for each rat.
After the baseline temperatures were established, rats were injected IP with saline, IL-1β or LPS endotoxin.
Rats then were injected IP with either saline (control) or various concentrations of EX-2, EX-3, or EX-4 (treated). The temperature of the rats was measured every hr for 6 hr and the inhibition by EX-2, EX-3, or EX-4 of the rise in temperature due to IL-1β or LPS was determined.
In addition, treatment with 50 or 150 μg/kg EX-2 inhibited LPS-induced fever by 45% or 52%, respectively, when measured 6 hr following LPS injection. Furthermore, treatment with 150 μg/kg EX-3 or EX-4 inhibited LPS-induced fever by 57% and 52%, respectively (Table II).

In another assay the test system is Sprague-Dawley rats. The assay is described as follows: Streptozotocin-induced diabetes, plasma glucose. The conditions noted are these: STZ 65 mg/kg iv; EX-2 150 μg/kg every 8 hr for 72 hr. Here is the method: B. Induced Diabetes: Male Sprague-Dawley rats were given 65 mg/kg of streptozotocin (STZ) intravenously through the tall vein. Rats were divided into two groups. The first group was administered EX-2, 150 μg/kg every 8 hr for 72 hr and the second group was a control. Blood samples were withdrawn under ether anesthesia every 8 hr for the first 72 hr, then every 12 hr or 24 hr until the end of the observation period. Plasma samples were assayed for glucose using a glucose assay kit (Trinder, Sigma Chemical Co.). As shown in Table VI below EX-2 effect a 72% reduction in blood glucose levels.

The text below walks through data of patent US5786332A, “Cytokine restraining agents and methods of use in pathologies and conditions associated with altered cytokine levels” (Trega Biosciences, Inc., priority 1995, dated 1998).

Consider “Ac-Nle-Gln-His-(D)Phe-Arg-(D)Trp-Gly-NH2 [EX-2]”, for which the “Reduction in IL-6 levels” value with IL-6 was found to be 60%. Moreover, the “Reduction in LPS-induced PMN Count” value in assay [1] was found to be 58%. For the same substance, the “Reduction in LPS-induced Fever” value is 45% with Wistar rats (50 μg/kg IP) and 52% in the assay on Wistar rats (150 μg/kg IP). Moreover, the “% Reduction of induced increase in Blood Glucose (mg/dl), STZ Diabetes” value with Sprague-Dawley rats came out at 72%.
